For assay [1], the system named is MOLM-13 cells. In words: Ubiquitin-enrichment screen by mass spectrometry. The format is cell-based, human. As to conditions: 2 μM. How it is done:
Details of the ubiquitin-enrichment screen are described herein. Briefly, MOLM-13 cells were treated for 24 hr. with 2 μM of UC-764864. Ubiquitin-related peptide enrichment was performed by using ubiquitin remnant motif (K-ε-GG) antibody-conjugated beads (Cell Signaling Technology, Danvers, Mass.) following the manufacturer's instructions. Tryptic peptides were loaded onto the beads, and then ubiquitin-conjugated peptides were eluted from the bead. Nanoliquid chromatography coupled to electrospray tandem mass spectrometry (nanoLC-ESI-MS/MS) analyses were performed on a TripleTof 5600+ mass spectrometer (Sciex; Concord, Ontario, Canada) coupled with a nanoLC-ultra nanoflow system (Eksigent; Dublin, Calif.) in data dependent acquisition (DDA) or data independent acquisition (DIA) modes for Sequential Window Acquisition of all Theoretical mass spectra (SWATH-MS) analysis.
MOLM-13 cells were treated for 24 hours with 2 μM of UC-764864. […] To reduce redundant peptide sequencing, former MS/MS-analyzed candidate ions were excluded after its first occurrence for 12 s. The DDA data was recorded using Analyst-1T (v.1.7) software. […]

The target of assay [2] is T1, UBE2N C87S (Homo sapiens, UniProt P61088, C87S).
T1 construct: purchased Genescript
T1 sequence (P61088 whole entry C87S): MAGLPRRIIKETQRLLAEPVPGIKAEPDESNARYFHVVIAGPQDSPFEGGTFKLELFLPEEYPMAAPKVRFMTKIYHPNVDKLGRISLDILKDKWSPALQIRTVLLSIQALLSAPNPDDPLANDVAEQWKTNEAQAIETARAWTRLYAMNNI
Briefly: Differential scanning fluorimetry (DSF). The format is binding. How it is done: (§1) Recombinant UBE2N (2 .tg; Life sensors #UB218) in 3 .tl of buffer containing 20 mM Tris-HCl pH 7.4, 10 mM DTT, 10% glycerol, 150 mM NaCl and 0.02% DMSO as well as six samples of 1 .tg UBE2N mixed with 0.2 .tg of UC-764864 or UC-764865 were diluted to 50 ng/uL in 0.1% formic acid (FA) in preparation of MALDI-TOF analysis. Two .tl aliquots from the samples were used to make a 1:5 dilution with MALDI matrix (5 mg/mL sinapic acid in 60% ACN/0.1% formic acid) with 1 .tL spotted onto the target plate for analysis. For UBE2N C87S mutant, recombinant protein was purchased from Genescript. 2 micrograms of protein as well as 3 samples of UBE2N C87S were mixed with 0.4 micrograms of UC-764864 and UC-764865 in 10 microliters of buffer containing 20 mM Tris HCl pH 7.4, 1 mM DTT, 150 mM NaCl and ˜0.01% of DMSO in each sample. All mixtures were brought up to 40 ul by adding 30 ul of 0.1% formic acid (FA). 5 ul aliquots from the samples were used to make a 1:5 dilution with MALDI matrix as described above. […] The temperature was raised in 1° C. increments from 25° C. to 95° C. and fluorescence was measured at 530 nm. Derivative Tm was determined using Protein Thermal Shift Software version 1.3 by Applied Biosystems and then were analyzed with Prism 6 (GraphPad Software Inc.).
(DSF heats the sample and reads unfolding from a dye or from intrinsic fluorescence.)

Assay [3] has as its target T2, UBE2N wild type (Homo sapiens, UniProt P61088).
T2 construct: purchased Life sensors UB218
T2 sequence (P61088 1-152): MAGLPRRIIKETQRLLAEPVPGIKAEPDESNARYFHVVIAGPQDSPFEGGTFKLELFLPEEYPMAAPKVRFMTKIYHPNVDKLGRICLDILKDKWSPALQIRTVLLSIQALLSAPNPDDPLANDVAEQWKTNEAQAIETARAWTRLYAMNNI
In words: Differential scanning fluorimetry (DSF). In kind it is binding. As to conditions: recombinant UBE2N protein. As for the experimental part: as §1

From patent US20220267753A1, “RATIONAL THERAPEUTIC TARGETING OF ONCOGENIC IMMUNE SIGNALING STATES IN MYELOID MALIGNANCIES VIA THE UBIQUITIN CONJUGATING ENZYME UBE2N” (CHILDREN'S HOSPITAL MEDICAL CENTER, priority 2019, published 2022) come the findings set out here.

Regarding `CCc1ccc(C(=O)C=CSc2nc3ccc(C)cc3[nH]2)cc1` [UC-764864, 1-(4-ethylphenyl)-3-[(6-methyl-1H-benzimidazol-2-yl)sulfanyl]prop-2-en-1-one], the “ubiquitination levels of other Ub-conjugating enzymes” value in assay [1] (MOLM-13) is “did not significantly alter”. Further, in assay [1] (MOLM-13, P<0.01), the “ubiquitination of UBE2N at Lys-92” value is on record as “significantly reduced”.

For the compound `COc1ccc(C(=O)C=CSc2nc3ccc(C)cc3[nH]2)cc1` [UC-764865, 1-(4-methoxyphenyl)-3-[(6-methyl-1H-benzimidazol-2-yl)sulfanyl]prop-2-en-1-one], the “change in Tm of UBE2N(C87S)” value in assay [2] is reported as “did not change”. Besides, the “change in melting temperature (Tm)” value in assay [3] is listed as −2 C degrees.
